# Legend:
# [1] = tested on: Panc 05.04 (pancreas cancer); assay: Chou and Talalay combination assay with beta-caryophyllene; assay type: cell-based, Human; conditions: in combination with beta-caryophyllene in ethanol (40-150 mM), 48 h
# Experimental: Agent: […] Each solution was prepared fresh and use within 1 hour after preparation. 5 μL of each test article were added to 1 mL of culture medium for a final concentration of 0.5% of solvent and this concentration have no toxic effect on cells. Cells: The Panc 05.04 cell line was used. Cells were harvested using trypsine-EDTA. […] Cells were plated in 96-well microplates (BD Falcon) at a density of 7.5×10^3 cells per well for Chou and Talalay assay in 100 μL of culture medium and were allowed to adhere for 24 hours before treatment. Proliferation assay: Increasing concentrations of the anticancer agents and/or beta-caryophyllene were added to 96-well plate (100 μL per well). The final concentration of solvent in the culture medium was maintained below 0.5% (volume/volume) to avoid solvent toxicity. […] The cells were incubated for 48 h at 37° C. and 5% CO2. Cytotoxicity was assessed using the resazurin reduction test (8). […] Resazurin was then removed. Data analysis: Results were analyzed using the Chou and Talalay method (9) and may be interpreted as follow: […]
# [2] = tested on: B16-F1 mouse skin melanoma
# Experimental: Formulations: Two formulations were used for this study. The first one was prepared for groups treated with paclitaxel alone while the other one was prepared for the paclitaxel/caryophyllene combination (Table 5). […] These solutions were further diluted with 19 mL of a solution containing soya lecithin (2.85 mL), glycerol (0.95 mL) and polysorbate 80 (380 μL) in water (14.82 mL). Each solution was prepared fresh and used within 30 minutes after preparation (see Table 5 below for presenting formulations).
# Mice: All the experiments were carried out using B6D2F1 male mice, 6-weeks old (Charles Rivers Inc., St-Constant, QC). They were handled and cared for in accordance with the Guide for the Care and Use of Laboratory Animals.
# Cells (passages #7 to 21) were grown to 90% confluence in complete MEM medium containing Earle's salts and L-glutamine (Mediatech Cellgro, Va.), 10% fetal bovine serum (Hyclone), vitamins (1×), penicillin (100 I.U./mL) and streptomycin (100 μg/mL), essential amino acids (1×) and sodium pyruvate (1×) (Mediatech Cellgro, Va.). Cells were then harvested using 0.5% trypsin-EDTA (Mediatech Cellgro, Va.). Cells were counted using a hemacytometer and resuspended in MEM medium without SVF. 100 μL of a solution containing […] per well were inoculated subcutaneously in each mice.
# Administration: To establish animal tumor models, 2.5×10^6 cells were resuspended in 100 μL of MEM medium without SVF (Mediatech Cellgro, Va.) and injected into the subcutaneous tissue of the right flank of the mice on day zero. […] Treatments by intravenous injections (tail vein) were performed on days 7, 10, 13.
# Data analysis: Antitumor activity was evaluated according to two parameters as follows:
# CTW values were averaged within each group during and after drug treatment over a period of 17 days post-tumor implant. […] Values of p<0.05 were considered statistically significant.
# MCF-7 = assay: Cytotoxicity of alpha-humulene and isocaryophyllene alone or combined with beta-caryophyllene; assay type: cell-based, human; conditions: beta-caryophyllene 2.5 to 40 μg/ml
# Experimental: Combinations of beta-caryophyllene and two other antitumor agents, isocaryophyllene and α-humulene, were also tested as described above with some adaptations. 5×10^3 cells per well were allowed to adhere for 16 hours before treatment. The final concentration of solvent in the culture medium was maintained at 0.5% (volume/volume) to avoid toxicity. These combinations were tested on MCF-7.
# tumor cell lines = assay: Comparative potentiating effect of beta-caryophyllene and Tesmilifene (DPPE) combined with 5 antitumor classes; assay type: cell-based
# Experimental: Each solution was prepared fresh and use within 1 hour after preparation.
# Cells were then harvested using trypsine-EDTA. Cells were counted using a hemocytometer and resuspended in DMEM+10% FBS medium.
# Proliferation assay: Increasing concentrations of the anticancer agents and/or beta-caryophyllene were added to 96-well plate (100 μL per well). The final concentration of solvent in the culture medium was maintained below 0.5% (volume/volume) to avoid solvent toxicity.
# The cells were incubated for 48 h at 37° C. and 5% CO2. Cytotoxicity was assessed using the resazurin reduction test (O'Brien et al., 2000). Fluorescence was measured on an automated 96-well Fluoroskan Ascent FI™ plate reader (Labsystems) using excitation and emission wavelengths of 530 nm and 590 nm, respectively. Resazurin was then removed.
# Microplates were frozen at −20° C. overnight. Plates were thawed, a volume of 100 μl of 0.01% SDS in water was added to the wells, the plates were shaken at room temperature for 3 hours and then frozen once more at −20° C. overnight. […] Plates were shaken in the dark (at room temperature) for at least 2 hours, and fluorescence was measured on an automated 96-well Fluoroskan Ascent FI™ plate reader (Labsystems) using excitation and emission wavelengths of 360 nm and 460 nm, respectively.
# Results were analyzed using the Chou and Talalay method (9) and may be interpreted as follow: Cl>1 represents an antagonist effect of beta-caryophyllene with the corresponding anticancer agent; Cl=1 represents an additive effect of beta-caryophyllene with the corresponding anticancer agent; Cl<1 represents a potentiating effect of beta-caryophyllene with the corresponding anticancer agent.
# [3] = paclitaxel 2 mg/kg, beta-caryophyllene 1%, i.v. days 7, 10, 13
structure (smiles),measurement,setting,value
"CC[C@@]1(O)C(=O)OCc2c1cc1n(c2=O)Cc2cc3ccccc3nc2-1 [Camptothecin, camptothecin]",Potentiating activity Panc 05.04,[1],Potentiating > IC60
CCc1c2c(nc3ccc(OC(=O)N4CCC(N5CCCCC5)CC4)cc13)-c1cc3c(c(=O)n1C2)COC(=O)[C@]3(O)CC [Irinotecan],Potentiating activity Panc 05.04,[1],Potentiating > IC50
"C=C1CC/C=C(\C)CC[C@@H]2[C@@H]1CC2(C)C [beta-caryophyllene, (1R,4E,9S)-4-11,11-trimethyl-8-methylenebicyclo[7.2.0]undec-4-ene]",effect on tumor growth (in words),"[2]; B16 melanoma-bearing mice, i.v. days 7, 10, 13",do not significantly inhibit tumor growth
same,Observations: animals surviving on day 17,"[2]; male, B6D2F1, mouse, in vivo, 17 day",08/08 animals
same,Treated/Control (%) on day 13,[2]; [3],95%
same,Treated/Control (%) on day 14,[2]; [3],100%
same,Treated/Control (%) on day 15,[2]; [3],89%
same,Treated/Control (%) on day 16,[2]; [3],91%
same,Treated/Control (%) on day 17,[2]; [3],111%
same,effect on anticancer activity of alpha-humulene and isocaryophyllene,MCF-7,increases significantly anticancer activity
same,Alkylating agents %,tumor cell lines; class (1) Very High,50%
same,Alkylating agents Total (60),tumor cell lines; class (1) Very High,30
same,Antimitotic agents %,tumor cell lines; class (1) Very High,60%
same,Antimitotic agents Total (40),tumor cell lines; class (1) Very High,24
same,RNA/DNA antimetabolites %,tumor cell lines; class (1) Very High,30%
same,RNA/DNA antimetabolites Total (20),tumor cell lines; class (1) Very High,6
same,Topoisomerase II inhibitors %,tumor cell lines; class (1) Very High,33%
same,Topoisomerase II inhibitors Total (40),tumor cell lines; class (1) Very High,13
same,kinase inhibitors %,tumor cell lines; class (1) Very High,35%
same,kinase inhibitors Total (20),tumor cell lines; class (1) Very High,7
same,Alkylating agents %,tumor cell lines; class (2) High,15%
same,Alkylating agents Total (60),tumor cell lines; class (2) High,9
same,Antimitotic agents %,tumor cell lines; class (2) High,15%
same,Antimitotic agents Total (40),tumor cell lines; class (2) High,6
same,RNA/DNA antimetabolites %,tumor cell lines; class (2) High,20%
same,RNA/DNA antimetabolites Total (20),tumor cell lines; class (2) High,4
same,Topoisomerase II inhibitors %,tumor cell lines; class (2) High,18%
same,Topoisomerase II inhibitors Total (40),tumor cell lines; class (2) High,7
same,kinase inhibitors %,tumor cell lines; class (2) High,30%
same,kinase inhibitors Total (20),tumor cell lines; class (2) High,6
same,Alkylating agents %,tumor cell lines; class (3) Moderate,23%
same,Alkylating agents Total (60),tumor cell lines; class (3) Moderate,14
same,Antimitotic agents %,tumor cell lines; class (3) Moderate,23%
same,Antimitotic agents Total (40),tumor cell lines; class (3) Moderate,9
same,RNA/DNA antimetabolites %,tumor cell lines; class (3) Moderate,15%
same,RNA/DNA antimetabolites Total (20),tumor cell lines; class (3) Moderate,3
same,Topoisomerase II inhibitors %,tumor cell lines; class (3) Moderate,28%
same,Topoisomerase II inhibitors Total (40),tumor cell lines; class (3) Moderate,11
same,kinase inhibitors %,tumor cell lines; class (3) Moderate,20%
same,kinase inhibitors Total (20),tumor cell lines; class (3) Moderate,4
same,Alkylating agents %,tumor cell lines; class (4) Weak,4%
same,Alkylating agents Total (60),tumor cell lines; class (4) Weak,2
same,Antimitotic agents %,tumor cell lines; class (4) Weak,3%
same,Antimitotic agents Total (40),tumor cell lines; class (4) Weak,1
same,RNA/DNA antimetabolites %,tumor cell lines; class (4) Weak,10%
same,RNA/DNA antimetabolites Total (20),tumor cell lines; class (4) Weak,2
same,Topoisomerase II inhibitors %,tumor cell lines; class (4) Weak,10%
same,Topoisomerase II inhibitors Total (40),tumor cell lines; class (4) Weak,4
same,kinase inhibitors %,tumor cell lines; class (4) Weak,5%
same,kinase inhibitors Total (20),tumor cell lines; class (4) Weak,1
same,Alkylating agents %,tumor cell lines; class (5) Additive effect,0%
same,Alkylating agents Total (60),tumor cell lines; class (5) Additive effect,0
same,Antimitotic agents %,tumor cell lines; class (5) Additive effect,0%
same,Antimitotic agents Total (40),tumor cell lines; class (5) Additive effect,0
same,RNA/DNA antimetabolites %,tumor cell lines; class (5) Additive effect,0%
same,RNA/DNA antimetabolites Total (20),tumor cell lines; class (5) Additive effect,0
same,Topoisomerase II inhibitors %,tumor cell lines; class (5) Additive effect,8%
same,Topoisomerase II inhibitors Total (40),tumor cell lines; class (5) Additive effect,3
same,kinase inhibitors %,tumor cell lines; class (5) Additive effect,5%
same,kinase inhibitors Total (20),tumor cell lines; class (5) Additive effect,1
same,Alkylating agents %,tumor cell lines; class (6) Antagonist effect,7%
same,Alkylating agents Total (60),tumor cell lines; class (6) Antagonist effect,4
same,Antimitotic agents %,tumor cell lines; class (6) Antagonist effect,0%
same,Antimitotic agents Total (40),tumor cell lines; class (6) Antagonist effect,0
same,RNA/DNA antimetabolites %,tumor cell lines; class (6) Antagonist effect,25%
same,RNA/DNA antimetabolites Total (20),tumor cell lines; class (6) Antagonist effect,5
same,Topoisomerase II inhibitors %,tumor cell lines; class (6) Antagonist effect,5%
same,Topoisomerase II inhibitors Total (40),tumor cell lines; class (6) Antagonist effect,2
same,kinase inhibitors %,tumor cell lines; class (6) Antagonist effect,5%
same,kinase inhibitors Total (20),tumor cell lines; class (6) Antagonist effect,1
same,drugs exhibiting a potentiating effect when combined,tumor cell lines; drugs tested at their IC50 values,91%

# Source: US20110008465A1, “SESQUITERPENE FORMULATIONS, KITS AND METHODS OF USE THEREOF” (priority 2007, published 2011)
